Measured values: patent publication US20200079757A1, “COMPOUNDS FOR THE TREATMENT OF RESPIRATORY DISEASES” (THE UNIVERSITY OF MELBOURNE, priority 2017, published 2020)

Assays:
[1] = test system: PAI-1 gene expression in BEAS-2B cells; experiment: TNF-α and TGF-β induced PAI-1 gene expression in BEAS-2B cells (RT-qPCR); format: cell-based; details: for TNFa stimulated PAI-1 expression: 30 min pretreatment 1-10 μM, n=1, similar potency and maxima
Description: The primary assay for the activity of the novel CK1δ/ε inhibitors is the modulation of gene expression in the airway epithelial cell line, the BEAS-2B cells. The assay is conducted under several conditions. Generally, TGF-β or TNF-α is used to elicit fibrogenic or inflammatory genes, respectively. The agents are added at a concentration of 10 μM, or at the indicated concentrations for a period of 30 min prior to the addition of TGF-β/TNF-α which are incubated for a further 20 hours before the addition, in some experiments of the glucocorticoid, dexamethasone (Dex, 30 nM) for the final 4 hours of the experiment, prior to harvest of cellular RNA to measure by RT-qPCR the levels of mRNA of marker genes for inflammation and fibrogenesis. The inhaled corticosteroid (ICS), budesonide is also used in some experiments. Furthermore, the supernatants are harvested at the end of the incubation periods in selected experiments to measure the levels of CSF-2 or IL-8 by ELISA as described in (Tran et al. (2005) British Journal of Pharmacology, 145, 123-131). Prior to experimentation, BEAS-2B and A549 cells were incubated in serum-free DMEM containing 0.25% bovine serum albumin (BSA) and insulin-transferrin-selenium—containing supplement (Monomed A; CSL, Parkville, Melbourne, Australia). Where indicated, cells were treated with one of the series of synthesised compounds (0.3-10 μM) prior to exposure to 100 pM TGF-β1 (R&D Systems, Minneapolis, Minn.) or 300 pM bFGF (Promega, Madison, Wis.). Total RNA was extracted from cultured cells using illustra RNAspin Mini RNA Isolation Kit (GE Healthcare). RNA extracts were reverse-transcribed into cDNA using High-Capacity RNA-to-cDNA Kit (Applied Biosystems). Real-time PCR was then performed using a QuantStudio 6 Flex Real-Time PCR System using iTaq Universal SYBR green supermix and the following thermal protocol: 50° C. (2 min), 95° C. (10 min), then 40 cycles of 95° C. (15 sec), 60° C. (1 min). The threshold cycle (CT) values determined for target genes were normalized against those obtained for 18S ribosomal RNA (18S rRNA), which was included as internal control. The generation of specific PCR products was confirmed by dissociation curve analysis. In the same experiment as described in FIG. 1, the expression of the fibrogen plasminogen activator inhibitor-1 was measured (see FIG. 2). The levels of this gene are increased by both TGF-β and by Dex and they synergise when added together. The CK1 inhibitors concentration-dependently reduce the effects of each of the stimuli and further reduce baseline expression. Their potency in this effect is similar, regardless of the condition being considered. In a separate experiment BEAS-2B cells were exposed to TNF-α with(out) 30 min pretreatment with either SS9-010 or PF670462 (1-10 μM). RNA was then extracted and analyzed by RT-qPCR. Each agent inhibited TNFa stimulated PAI-1 expression with similar potency and maxima (see FIG. 3). Data are presented as mean±SD for n=1 (three technical replicates).

[2] = test system: SCNN1A gene expression in BEAS-2B cells; experiment: TGF-β-induced suppression of dexamethasone-induced SCNN1A gene expression in BEAS-2B cells; format: cell-based; details: for SCNN1A mRNA level, Dex / SCNN1A mRNA level, TGF-β / SCNN1A mRNA level, TGF-β/Dex / SCNN1A mRNA level, vehicle (no stimulus): BEAS-2B
Description: The primary assay for the activity of the novel CK1δ/ε inhibitors is the modulation of gene expression in the airway epithelial cell line, the BEAS-2B cells. The assay is conducted under several conditions. Generally, TGF-β or TNF-α is used to elicit fibrogenic or inflammatory genes, respectively. The agents are added at a concentration of 10 μM, or at the indicated concentrations for a period of 30 min prior to the addition of TGF-β/TNF-α which are incubated for a further 20 hours before the addition, in some experiments of the glucocorticoid, dexamethasone (Dex, 30 nM) for the final 4 hours of the experiment, prior to harvest of cellular RNA to measure by RT-qPCR the levels of mRNA of marker genes for inflammation and fibrogenesis. The inhaled corticosteroid (ICS), budesonide is also used in some experiments. Furthermore, the supernatants are harvested at the end of the incubation periods in selected experiments to measure the levels of CSF-2 or IL-8 by ELISA as described in (Tran et al. (2005) British Journal of Pharmacology, 145, 123-131). Prior to experimentation, BEAS-2B and A549 cells were incubated in serum-free DMEM containing 0.25% bovine serum albumin (BSA) and insulin-transferrin-selenium—containing supplement (Monomed A; CSL, Parkville, Melbourne, Australia). Where indicated, cells were treated with one of the series of synthesised compounds (0.3-10 μM) prior to exposure to 100 pM TGF-β1 (R&D Systems, Minneapolis, Minn.) or 300 pM bFGF (Promega, Madison, Wis.). Total RNA was extracted from cultured cells using illustra RNAspin Mini RNA Isolation Kit (GE Healthcare). RNA extracts were reverse-transcribed into cDNA using High-Capacity RNA-to-cDNA Kit (Applied Biosystems). Real-time PCR was then performed using a QuantStudio 6 Flex Real-Time PCR System using iTaq Universal SYBR green supermix and the following thermal protocol: 50° C. (2 min), 95° C. (10 min), then 40 cycles of 95° C. (15 sec), 60° C. (1 min). The threshold cycle (CT) values determined for target genes were normalized against those obtained for 18S ribosomal RNA (18S rRNA), which was included as internal control. The generation of specific PCR products was confirmed by dissociation curve analysis. In FIG. 1, the effects of SS9-010 are contrasted with those of PF670462 in an assay in BEAS-B cells measuring the induction of the glucocorticoid-regulated gene, SCNN1A encoding the protein epithelial sodium channel alpha subunit. Serum-starved BEAS-2B cells were treated with CK1δ/ε inhibitor PF670462 (1, 3, 10 μM) or SS9-010 (1, 3, 10 μM) 30 min prior to TGF-β1 (40 pM) for 24 hours, then stimulated with dexamethasone (30 nM) for 4 hours. RNA was then extracted and analyzed by RT-qPCR. Data are presented as mean±SEM for n=4 independent experiments. The potency of PF670462 and SS9-010 were similar.

Structure (SMILES) | PAI-1 mRNA level, TGF-β ([1]; agent 10 μM) [fold control] | PAI-1 mRNA level, TNF-α (n = 2) ([1]; agent 10 μM) [fold control] | PAI-1 mRNA level, vehicle (no stimulus) ([1]; agent 10 μM) [fold control] | SCNN1A mRNA level, Dex ([2]; agent 10 μM) [fold control] | SCNN1A mRNA level, TGF-β ([2]; agent 10 μM) [fold control] | SCNN1A mRNA level, TGF-β/Dex ([2]; agent 10 μM) [fold control] | SCNN1A mRNA level, vehicle (no stimulus) ([2]; agent 10 μM) [fold control] | TNFa stimulated PAI-1 expression [1] | potency compared with PF670462, induction of glucocorticoid-regulated gene SCNN1A ([2]; BEAS-2B, 1, 3, 10 μM, TGF-β1 40 pM 24 h, dexamethasone 30 nM 4 h) | SCNN1A mRNA level, Dex ([2]; agent 3 μM) [fold control] | SCNN1A mRNA level, TGF-β ([2]; agent 3 μM) [fold control] | SCNN1A mRNA level, TGF-β/Dex ([2]; agent 3 μM) [fold control] | SCNN1A mRNA level, vehicle (no stimulus) ([2]; agent 3 μM) [fold control] | PAI-1 mRNA level, TGF-β ([1]; agent 3 μM) [fold control] | PAI-1 mRNA level, TNF-α (n = 2) ([1]; agent 3 μM) [fold control]
CCCCCCCCN1CCC(n2cnc(-c3ccc(F)cc3)c2-c2ccnc(N)n2)CC1 [SS8-058, 4-(4-(4-Fluorophenyl)-1-[1-octylpiperidin-4-yl]-1H-imidazol-5-yl)pyrimidin-2-amine] | 9.14 ± 1.23 | 0.91 | 0.37 ± 0.04 | 6.57 | 0.91 | 3.77 | 2.62 | – | – | – | – | – | – | – | –
CNc1nccc(-c2c(-c3ccc(F)cc3)ncn2C2CCCCC2)n1 [SS9-010, 4-(1-Cyclohexyl-4-(4-fluorophenyl)-1H-imidazol-5-yl)-N-methylpyrimidin-2-amine] | 0.64 ± 0.05 | 0.43 | 0.18 ± 0.00 | – | – | – | – | inhibited | similar | 3.77 ± 0.33 | 0.67 ± 0.03 | 2.77 ± 0.31 | 1.14 ± 0.05 | – | –
Cl.Nc1nccc(-c2c(-c3ccc(F)cc3)ncn2C2CCCCC2)n1 [PF670462, 4-(1-Cyclohexyl-4-(4-fluorophenyl)-1H-imidazol-5-yl)pyrimidin-2-amine hydrochloride, reference compound] | 1.64 ± 0.27 | 0.47 | 0.26 ± 0.04 | – | – | – | – | inhibited | – | 3.36 ± 0.25 | 0.91 ± 0.08 | 2.56 ± 0.08 | 1.11 ± 0.10 | 1.30 ± 0.18 | 0.74
